± gives the expanded uncertainty stated by the source.

Series [1] can be described thus: wn = mass fraction of the nth substance listed. To be noted: 298.15 K, 100 kPa, Liquid, Vibrating tube method.
The nature of series [2]: refractive index (Na D-line) (dimensionless); wn = mass fraction of the nth substance listed. To be noted: 298.15 K, 100 kPa, Liquid, Standard Abbe refractometry.

In the case of `O=B[O-].[Na+]` [sodium metaborate] + O, in series [1] (w1 = 0.2259), the mass density (usually mass per unit of volume) is on record as 1267.8 ± 1.1 kg/m3. In addition, in series [2] (w1 = 0.2259), the refractive index (usually a measure of how strongly the sample bends light) stood at 1.3872 ± 0.0007.
For the compound `[Cl-].[Na+]` [sodium chloride] + O, in series [1] (w1 = 0.2645), the mass density was found to be 1198.1 ± 5.6 kg/m3. The refractive index in series [2] (w1 = 0.2645) amounted to 1.3796 ± 0.0015.
In the case of `O=S(=O)([O-])[O-].[Na+].[Na+]` [sodium sulfate] + O, the mass density in series [1] (w1 = 0.219) was found to be 1204.85 ± 14 kg/m3. For the same compound, the refractive index in series [2] (w1 = 0.219) came to 1.3626 ± 0.002.
